Reference: patent US20240425456A1, “DEGRADER” (ASKA PHARMACEUTICAL CO., LTD., priority 2021, published 2024)

Columns and labels:
Type in all cases: cell-based
[1] = biological target: T1, JAK1 (Homo sapiens, UniProt P23458); assay: Degradation-inducing effect on JAK in Jurkat cells (chemiluminescent Western blotting), JAK1; conditions: 1 μmol/L, 6 hours; for JAK protein ratio of Jurkat cells after treatment of each test compound: JAK1: corrected by GAPDH, DMSO as 100%
T1 construct: endogenous in cells; host or cells: Jurkat cells
Method: (§1) The degradation-inducing effect of the compound of the present invention on JAK family proteins was evaluated in vitro using Jurkat cells, of which cell line was derived from human leukemic T cells.
(§2) JAK1, JAK2, JAK3, and Tyk2-positive Jurkat cells were seeded at a density of 1×10^5 cells/mL on 10 cm diameter dishes and then cultured in RPMI 1640 medium (FUJIFILM Wako Pure Chemical: catalog number: 189-02025) containing 10% FBS (Thermo Fisher Scientific: catalog number: 10437-028) at 5% CO2 and 37° C. for 3 days. Then, each of the test compounds (compounds of Examples 1 to 11 and Comparative Examples 1 and 2) was added to the dish at a final concentration of 1 μmol/L, and the cells were cultured in the presence of the test compound for 6 hours. After that, the cell culture medium was collected in a 15 mL centrifuge tube (1000 rpm (240× g), room temperature, 5 min), followed by washing with PBS (1000 rpm (240× g), room temperature, 5 min). Then, the cells in the centrifuge tube were collected in a 1.5 mL tube (3000 rpm (860× g), 4° C., 5 min), lysed using RIPA buffer (25 mmol/L Tris-HCl (pH 7.4), 25 mmol/L NaCl, 0.5 mmol/L EGTA (pH 8.0), 0.1% SDS, 1% protease inhibitor), sonicated at ice temperature (cycles of [7.5 sec sonication, 5 sec off] for 5 min) and subjected to centrifugation (15000 rpm (21600× g), 4° C., 30 min). The thus-obtained supernatant was used as the protein solution. Using the BCA protein assay kit (Thermo Fisher Scientific: catalog number: 23225), the protein concentration of the protein solution of each test compound was measured according to the kit instructions, and then adjusted to 1.4 mg/mL with RIPA buffer. The thus-adjusted protein solutions were subjected to a fully automated Western blotting device (Simple Westerns Wes: proteinSimple) to detect the protein levels (JAK1, JAK2, JAK3, and Tyk2 as the target proteins, and GAPDH (Glyceraldehyde 3-phosphate dehydrogenase) as the internal standard protein) in the protein solutions by chemiluminescent Western blotting.
(§3) Furthermore, the luminescence levels of JAK1, JAK2, JAK3, and Tyk2 detected by chemiluminescent Western blotting were quantified numerically by using an analysis software (Compass software for Simple Western (version 4.0.0)) attached to the fully automated Western blotting device. The numerical values of the quantified luminescence levels were corrected by the protein levels of the internal standard protein, i.e., GAPDH, (target protein levels/GAPDH protein levels), and compared among the test compounds with dimethyl sulfoxide (DMSO) as 100%.

[2] = biological target: T2, JAK2 (Homo sapiens, UniProt O60674); assay: Degradation-inducing effect on JAK in Jurkat cells (chemiluminescent Western blotting), JAK2; conditions: 1 μmol/L, 6 hours, corrected by GAPDH, DMSO as 100%
T2 construct: endogenous in cells; host or cells: Jurkat cells
Method: as §1, §2, §3

[3] = biological target: T3, JAK3 (Homo sapiens, UniProt P52333); assay: Degradation-inducing effect on JAK in Jurkat cells (chemiluminescent Western blotting), JAK3; conditions: 1 μmol/L, 6 hours, corrected by GAPDH, DMSO as 100%, read-out: JAK protein ratio of Jurkat cells after treatment of each test compound: JAK3
T3 construct: endogenous in cells; host or cells: Jurkat cells
T3 sequence (P52333 1-1124): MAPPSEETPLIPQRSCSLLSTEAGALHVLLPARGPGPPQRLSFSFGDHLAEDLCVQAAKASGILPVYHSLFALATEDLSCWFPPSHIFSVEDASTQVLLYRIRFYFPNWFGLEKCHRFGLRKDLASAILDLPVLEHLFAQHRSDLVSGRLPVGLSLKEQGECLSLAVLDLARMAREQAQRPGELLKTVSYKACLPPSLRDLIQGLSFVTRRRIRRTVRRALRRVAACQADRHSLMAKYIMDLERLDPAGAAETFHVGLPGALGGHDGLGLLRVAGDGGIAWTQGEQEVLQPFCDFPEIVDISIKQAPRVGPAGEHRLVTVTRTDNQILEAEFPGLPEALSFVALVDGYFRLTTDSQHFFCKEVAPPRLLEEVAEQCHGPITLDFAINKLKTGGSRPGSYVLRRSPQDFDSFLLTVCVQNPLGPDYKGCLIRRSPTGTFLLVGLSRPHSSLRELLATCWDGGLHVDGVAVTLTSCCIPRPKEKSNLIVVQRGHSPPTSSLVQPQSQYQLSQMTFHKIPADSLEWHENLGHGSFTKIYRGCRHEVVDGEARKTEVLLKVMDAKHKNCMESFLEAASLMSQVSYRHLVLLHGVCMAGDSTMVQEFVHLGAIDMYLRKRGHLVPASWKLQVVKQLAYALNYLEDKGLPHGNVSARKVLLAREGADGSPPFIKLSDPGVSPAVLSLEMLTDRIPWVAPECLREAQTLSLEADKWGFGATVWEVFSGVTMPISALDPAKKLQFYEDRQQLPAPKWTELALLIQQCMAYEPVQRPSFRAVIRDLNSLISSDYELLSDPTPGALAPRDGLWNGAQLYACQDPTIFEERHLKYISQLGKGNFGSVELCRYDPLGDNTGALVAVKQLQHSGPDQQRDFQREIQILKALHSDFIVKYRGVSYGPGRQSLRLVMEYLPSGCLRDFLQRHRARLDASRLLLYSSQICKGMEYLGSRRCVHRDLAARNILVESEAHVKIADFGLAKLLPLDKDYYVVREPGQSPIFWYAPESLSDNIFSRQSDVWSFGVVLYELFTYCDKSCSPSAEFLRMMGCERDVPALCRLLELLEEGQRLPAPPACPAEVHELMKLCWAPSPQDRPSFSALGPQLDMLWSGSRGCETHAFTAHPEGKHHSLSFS
Method: as §1, §2, §3

[4] = biological target: T4, Tyk2 (Homo sapiens, UniProt P29597); assay: Degradation-inducing effect on JAK in Jurkat cells (chemiluminescent Western blotting), Tyk2; conditions: 1 μmol/L, 6 hours; for JAK protein ratio of Jurkat cells after treatment of each test compound: Tyk2: corrected by GAPDH, DMSO as 100%
T4 construct: endogenous in cells; host or cells: Jurkat cells
Method: as §1, §2, §3

T1 sequence (P23458 whole entry): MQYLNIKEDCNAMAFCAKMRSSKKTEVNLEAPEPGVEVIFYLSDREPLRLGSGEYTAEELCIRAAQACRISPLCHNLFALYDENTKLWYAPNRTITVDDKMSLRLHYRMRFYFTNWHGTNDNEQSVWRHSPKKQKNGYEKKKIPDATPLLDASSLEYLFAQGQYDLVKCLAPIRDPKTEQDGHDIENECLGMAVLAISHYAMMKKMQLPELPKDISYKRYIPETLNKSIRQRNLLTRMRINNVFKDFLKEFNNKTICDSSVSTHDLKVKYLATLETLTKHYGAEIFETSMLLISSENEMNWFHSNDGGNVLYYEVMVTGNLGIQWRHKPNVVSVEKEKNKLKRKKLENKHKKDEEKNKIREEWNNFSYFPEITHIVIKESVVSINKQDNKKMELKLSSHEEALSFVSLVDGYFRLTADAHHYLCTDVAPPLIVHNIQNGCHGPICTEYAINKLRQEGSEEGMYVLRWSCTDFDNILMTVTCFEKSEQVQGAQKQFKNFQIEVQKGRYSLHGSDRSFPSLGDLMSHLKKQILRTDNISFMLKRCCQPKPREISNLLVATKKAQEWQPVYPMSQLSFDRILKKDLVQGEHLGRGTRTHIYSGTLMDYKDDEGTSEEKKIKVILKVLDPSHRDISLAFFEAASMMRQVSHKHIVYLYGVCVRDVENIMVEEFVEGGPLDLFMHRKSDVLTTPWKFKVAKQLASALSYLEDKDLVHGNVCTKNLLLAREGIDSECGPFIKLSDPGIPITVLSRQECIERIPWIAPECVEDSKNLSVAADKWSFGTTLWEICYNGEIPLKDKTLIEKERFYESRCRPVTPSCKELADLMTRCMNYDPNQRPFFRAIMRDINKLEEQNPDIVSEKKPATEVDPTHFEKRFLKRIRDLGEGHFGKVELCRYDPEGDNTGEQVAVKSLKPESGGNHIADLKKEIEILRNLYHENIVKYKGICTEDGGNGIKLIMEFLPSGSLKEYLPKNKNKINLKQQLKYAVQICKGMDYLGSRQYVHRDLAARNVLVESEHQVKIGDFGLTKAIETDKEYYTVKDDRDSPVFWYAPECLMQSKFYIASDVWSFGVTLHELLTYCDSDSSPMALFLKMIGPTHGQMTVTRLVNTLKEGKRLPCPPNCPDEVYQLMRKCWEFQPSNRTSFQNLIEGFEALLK
T4 sequence (P29597 whole entry): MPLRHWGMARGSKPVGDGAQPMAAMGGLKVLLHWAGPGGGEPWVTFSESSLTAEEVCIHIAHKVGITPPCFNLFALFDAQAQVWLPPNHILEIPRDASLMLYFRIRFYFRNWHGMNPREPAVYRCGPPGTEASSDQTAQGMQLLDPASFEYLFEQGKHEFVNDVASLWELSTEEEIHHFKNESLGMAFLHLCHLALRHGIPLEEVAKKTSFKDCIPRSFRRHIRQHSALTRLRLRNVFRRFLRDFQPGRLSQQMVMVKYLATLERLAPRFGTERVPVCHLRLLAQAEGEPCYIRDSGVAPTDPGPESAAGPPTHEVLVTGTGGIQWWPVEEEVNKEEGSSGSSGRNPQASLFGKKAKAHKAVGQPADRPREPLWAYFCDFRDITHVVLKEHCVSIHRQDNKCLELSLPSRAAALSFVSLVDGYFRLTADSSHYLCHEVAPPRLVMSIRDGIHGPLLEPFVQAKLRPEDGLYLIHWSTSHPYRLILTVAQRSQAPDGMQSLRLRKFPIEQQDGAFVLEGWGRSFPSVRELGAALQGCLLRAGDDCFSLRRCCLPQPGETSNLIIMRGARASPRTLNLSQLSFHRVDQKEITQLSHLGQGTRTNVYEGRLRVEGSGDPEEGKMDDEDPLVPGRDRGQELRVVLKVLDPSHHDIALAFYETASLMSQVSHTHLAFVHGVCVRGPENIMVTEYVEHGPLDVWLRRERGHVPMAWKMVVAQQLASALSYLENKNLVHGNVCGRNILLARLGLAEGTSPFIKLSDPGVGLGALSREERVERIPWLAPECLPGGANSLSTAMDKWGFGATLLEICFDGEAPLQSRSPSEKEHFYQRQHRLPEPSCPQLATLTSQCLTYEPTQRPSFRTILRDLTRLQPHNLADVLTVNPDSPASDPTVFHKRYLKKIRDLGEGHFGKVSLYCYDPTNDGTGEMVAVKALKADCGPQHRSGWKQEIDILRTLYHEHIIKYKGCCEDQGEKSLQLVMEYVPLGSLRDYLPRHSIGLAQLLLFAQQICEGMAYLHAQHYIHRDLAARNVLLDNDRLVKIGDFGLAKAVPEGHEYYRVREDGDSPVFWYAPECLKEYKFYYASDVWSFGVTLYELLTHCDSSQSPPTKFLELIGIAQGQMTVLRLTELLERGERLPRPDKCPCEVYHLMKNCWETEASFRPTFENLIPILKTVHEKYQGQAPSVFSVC
T2 sequence (O60674 whole entry): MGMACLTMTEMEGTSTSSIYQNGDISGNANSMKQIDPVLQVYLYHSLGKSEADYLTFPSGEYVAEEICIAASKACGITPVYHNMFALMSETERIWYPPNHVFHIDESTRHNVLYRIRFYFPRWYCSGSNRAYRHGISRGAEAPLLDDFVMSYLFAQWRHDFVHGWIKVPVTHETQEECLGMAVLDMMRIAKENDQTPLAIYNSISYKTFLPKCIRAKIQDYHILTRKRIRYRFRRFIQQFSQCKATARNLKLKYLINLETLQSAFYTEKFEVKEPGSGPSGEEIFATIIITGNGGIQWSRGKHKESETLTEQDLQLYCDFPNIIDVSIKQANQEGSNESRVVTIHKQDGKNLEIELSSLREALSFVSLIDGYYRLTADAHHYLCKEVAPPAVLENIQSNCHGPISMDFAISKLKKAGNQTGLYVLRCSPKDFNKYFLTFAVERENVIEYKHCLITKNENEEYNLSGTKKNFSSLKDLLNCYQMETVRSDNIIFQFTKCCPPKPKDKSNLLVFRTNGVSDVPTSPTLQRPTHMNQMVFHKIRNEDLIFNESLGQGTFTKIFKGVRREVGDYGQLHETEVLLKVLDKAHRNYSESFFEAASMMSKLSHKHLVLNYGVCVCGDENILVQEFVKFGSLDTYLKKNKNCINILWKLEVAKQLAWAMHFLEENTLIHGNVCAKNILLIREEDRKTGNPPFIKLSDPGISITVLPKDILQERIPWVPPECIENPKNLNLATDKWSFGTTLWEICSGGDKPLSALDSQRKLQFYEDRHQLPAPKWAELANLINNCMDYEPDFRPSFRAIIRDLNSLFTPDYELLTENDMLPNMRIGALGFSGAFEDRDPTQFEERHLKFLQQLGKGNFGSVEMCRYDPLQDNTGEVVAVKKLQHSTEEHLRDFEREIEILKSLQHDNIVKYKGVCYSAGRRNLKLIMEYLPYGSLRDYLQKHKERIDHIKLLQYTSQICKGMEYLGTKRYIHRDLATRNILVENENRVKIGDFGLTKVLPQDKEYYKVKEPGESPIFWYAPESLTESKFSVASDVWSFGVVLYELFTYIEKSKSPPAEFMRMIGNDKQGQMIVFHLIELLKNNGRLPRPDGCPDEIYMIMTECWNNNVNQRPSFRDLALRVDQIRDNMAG

| SMILES | JAK protein ratio of Jurkat cells after treatment of each test compound: JAK1 [1] [%] | JAK protein ratio of Jurkat cells after treatment of each test compound: JAK2 [2] [%] | JAK3 protein level relative to DMSO at 1 µM [3] [%] | JAK protein ratio of Jurkat cells after treatment of each test compound: Tyk2 [4] [%] | protein level of Tyk2 (in words) [4] | protein level of JAK1 (in words) [1] |
| --- | --- | --- | --- | --- | --- | --- |
| CNC(=O)c1cnc(Nc2ccc(C(=O)NCCCCCCCCCC(=O)N[C@H](C(=O)N3C[C@H](O)C[C@H]3C(=O)NCc3ccc(-c4scnc4C)cc3)C(C)(C)C)cn2)cc1Nc1cccc(C(=O)NCCO)c1OC [Example 11, 6-((5-((10-(((S)-1-((2S,4R)-4-hydroxy-2-((4-(4-methylthiazol-5-yl)benzyl)carbamoyl)pyrrolidin-1-yl)-3,3-dimethyl-1-oxobutan-2-yl)amino)-10-oxodecyl)carbamoyl)pyridin-2-yl)amino)-4-((3-((2-hydroxyethyl)carbamoyl)-2-methoxyphenyl)amino)-N-methylnicotinamide] | 114.4 | 132.2 | 103 | 55.1 | – | – |
| CNC(=O)c1cnc(Nc2ccc(C(=O)NCCCCCC(=O)N[C@H](C(=O)N3C[C@H](O)C[C@H]3C(=O)NCc3ccc(-c4scnc4C)cc3)C(C)(C)C)cn2)cc1Nc1cccc(C(=O)NC)c1OC [Example 2, 6-((5-((6-(((S)-1-((2S,4R)-4-Hydroxy-2-((4-(4-methylthiazol-5-yl)benzyl)carbamoyl)pyrrolidin-1-yl)-3,3-dimethyl-1-oxobutan-2-yl)amino)-6-oxohexyl)carbamoyl)pyridin-2-yl)amino)-4-((2-methoxy-3-(methylcarbamoyl)phenyl)amino)-N-methylnicotinamide] | 139.2 | 112.6 | 118 | 48.8 | – | – |
| CNC(=O)c1cnc(Nc2ccc(C(=O)NCCCCCCCCCC(=O)N[C@H](C(=O)N3C[C@H](O)C[C@H]3C(=O)NCc3ccc(-c4scnc4C)cc3)C(C)(C)C)cn2)cc1Nc1cccc(-c2ncn(C)n2)c1OC [Example 10, 6-((5-((10-(((S)-1-((2S,4R)-4-hydroxy-2-((4-(4-methylthiazol-5-yl)benzyl)carbamoyl)pyrrolidin-1-yl)-3,3-dimethyl-1-oxobutan-2-yl)amino)-10-oxodecyl)carbamoyl)pyridin-2-yl)amino)-4-((2-methoxy-3-(1-methyl-^1H-1,2,4-triazol-3-yl)phenyl)amino)-N-methylnicotinamide] | 90.5 | 114.1 | 111 | 31.2 | – | – |
| CNC(=O)c1cnc(Nc2ccc(C(=O)NCCCCCCCCCCC(=O)N[C@H](C(=O)N3C[C@H](O)C[C@H]3C(=O)NCc3ccc(-c4scnc4C)cc3)C(C)(C)C)cn2)cc1Nc1cccc(C(=O)NC)c1OC [Example 6, 6-((5-((11-(((S)-1-((2S,4R)-4-Hydroxy-2-((4-(4-methylthiazol-5-yl)benzyl)carbamoyl)pyrrolidin-1-yl)-3,3-dimethyl-1-oxobutan-2-yl)amino)-11-oxoundecyl)carbamoyl)pyridin-2-yl)amino)-4-((2-methoxy-3-(methylcarbamoyl)phenyl)amino)-N-methylnicotinamide] | 113.2 | 139.8 | 122 | 30.3 | – | – |

The remaining lines, values ahead:

| JAK protein ratio of Jurkat cells after treatment of each test compound: JAK1 [1] [%] | JAK protein ratio of Jurkat cells after treatment of each test compound: JAK2 [2] [%] | JAK3 protein level relative to DMSO at 1 µM [3] [%] | JAK protein ratio of Jurkat cells after treatment of each test compound: Tyk2 [4] [%] | protein level of Tyk2 (in words) [4] | protein level of JAK1 (in words) [1] | SMILES |
| --- | --- | --- | --- | --- | --- | --- |
| 122.8 | 121.0 | 112 | 23.1 | – | – | CNC(=O)c1cnc(Nc2ccc(C(=O)NCCCCCCCCCC(=O)N[C@H](C(=O)N3C[C@H](O)C[C@H]3C(=O)NCc3ccc(-c4scnc4C)cc3)C(C)(C)C)cn2)cc1Nc1cccc(C(=O)NC)c1OC [Example 5, 6-((5-((10-(((S)-1-((2S,4R)-4-Hydroxy-2-((4-(4-methylthiazol-5-yl)benzyl)carbamoyl)pyrrolidin-1-yl)-3,3-dimethyl-1-oxobutan-2-yl)amino)-10-oxodecyl)carbamoyl)pyridin-2-yl)amino)-4-((2-methoxy-3-(methylcarbamoyl)phenyl)amino)-N-methylnicotinamide] |
| 92.4 | 87.6 | 83.3 | 78.9 | not reduced | – | CNC(=O)c1cnc(Nc2ccc(F)cn2)cc1Nc1cccc(C(=O)NCCCCCCCCCC(=O)N[C@H](C(=O)N2C[C@H](O)C[C@H]2C(=O)NCc2ccc(-c3scnc3C)cc2)C(C)(C)C)c1OC [Comparative Example 1, 6-((5-Fluoropyridin-2-yl)amino)-4-((3-((10-(((S)-1-((2S,4R)-4-hydroxy 2-((4-(4-methylthiazol-5-yl)benzyl)carbamoyl)pyrrolidin-1-yl)-3,3-dimethyl-1-oxobutan-2-yl)amino)-10-oxodecyl)carbamoyl)-2-methoxyphenyl)amino)-N-methylnicotinamide, reference compound] |
| 57.6 | 115.9 | 99.3 | 15.4 | – | reduced | CNC(=O)c1cccc(Nc2cc(Nc3ccc(C(=O)NCCCCCCCCCC(=O)N[C@H](C(=O)N4C[C@H](O)C[C@H]4C(=O)NCc4ccc(-c5scnc5C)cc4)C(C)(C)C)cn3)ncc2C(N)=O)c1OC [Example 9, 6-((5-Carbamoyl-4-((2-methoxy-3-(methylcarbamoyl)phenyl)amino)pyridin-2-yl)amino)-N-(10-(((S)-1-((2S,4R)-4-hydroxy-2-((4-(4-methylthiazol-5-yl)benzyl)carbamoyl)pyrrolidin-1-yl)-3,3-dimethyl-1-oxobutan-2-yl)amino)-10-oxodecyl) nicotinamide] |
